Results taken from paper PMC7269033, “A composite nanocarrier to inhibit precipitation of the weakly basic drug in the gastrointestinal tract” (Drug Delivery, 2020).
Values after ≈ are worked out from the molar mass of the structure shown. Where two headings read alike, the source gives them in different places.

Tests used:
[1] = set-up: method as in Chai et al., 2016; settings: 37 °C, ref Chai et al., 2016, cited from earlier work
[2] = Cellular transport studies (Papp, efflux ratio); format: in vitro ADME; settings: human
Protocol: The Caco-2 cell monolayer is the most widespread model for cellular transport experiments to evaluate the efflux effect of P-gp (Hunter et al., [1993]). The transepithelial electrical resistance (TEER) value of Caco-2 cell monolayer model was measured using a cell resistance meter (Millicell-ERS, Millipore, USA), and models were used for transport experiments when the TEER value exceeded […] (Andrew & Cameron, [2012]).
For apical to basolateral (AP > BL) (basolateral to apical (BL > AP)) transport experiments, 1.5 mL of Hank’s Balanced Salt Solution (HBSS) loaded with DE, DE-SMs and DE-CMs (the concentration of DE in different groups was 200 μg/mL) was added to the AP side (BL side) and 2.6 mL of blank HBSS was added to the BL side (AP side), respectively. At fixed time intervals, 400 μL aliquots were taken from the BL side (AP side) with replacement of the fresh HBSS. The samples were frozen in a refrigerator at –80 °C until HPLC analysis. The HPLC method employed an ODS C18 column (250 × 4.6 mm, 5 μm, Dikma Technologies, China) and a methanol-water (75:25, v/v) mobile phase with a flow rate of 1.0 mL/min. The detection wavelength was 316 nm and the injection volume was 20 μL. The apparent permeability coefficient (Papp) and efflux ratio (ER) were calculated as follows: (5) Papp=dQ/dt/A×C0 where dQ/dt is the steady-state appearance rate of DE on the receiver side, C0 is the initial concentration of DE on the supply side, and A is the surface area of the cell monolayer. (6) ER=Papp(BL→AP)/Papp(AP→BL) where Papp(BL→AP) is the Papp value of DE transferred from the BL side to AP side, and Papp(AP→BL) is the Papp value of DE transferred from the AP side to BL side.

[3] = cited from earlier work
[4] = Cytotoxicity by MTT assay; format: cell-based; settings: human, Caco-2 cells, tested concentrations 0.05 μg/mL to 200 μg/mL, read-out: cell viability
Protocol: Cytotoxicity of DE, dabigatran etexilate-loaded single micelles (DE-SMs) and DE-CMs was investigated by the MTT assay (Zhai et al., [2013]). Caco-2 cells were supplied by KeyGEN BioTECH Co., Ltd. (Nanjing, China) and maintained in medium composite of DMEM (high glucose), 20% FBS and 1% penicillin/streptomycin solution. Cells were cultured at a density of 5 × 10^4 cells/well in 96-well plates and incubated at 37 °C under 5% CO2 for 24 h. Then, the complete medium was removed and cells were further incubated with 100 μL of complete medium containing DE, DE-SMs and DE-CMs at 37 °C for 24 h, respectively. Next, the medium was replaced with 20 μL of MTT (5 mg/mL) solution and 80 μL of fresh medium. Following 4 h of incubation, the medium containing MTT was discarded and 150 μL of DMSO was added to each well to dissolve the granular crystallization. The optical density of the samples was measured at 490 nm wavelength using a microplate ELISA analyzer (Thermo Scientific, USA) (Fan et al., [2017a]). The negative control was the group of Caco-2 cells without drugs. Cell viability was calculated as follows: (4) Cell viability (%)=(1−ODnegtive control−ODsample/ODnegtive control)×100% where ODnegative control is the optical density of the negative control group, and ODsample is the optical density of the experimental group.

SMILES: CCCCCCOC(=O)NC(=N)c1ccc(NCc2nc3cc(C(=O)N(CCC(=O)OCC)c4ccccn4)ccc3n2C)cc1 [DE, dabigatran etexilate]
- solubility ([1]; SGF): 19245 µg/mL (≈ 30.7 mM)
- solubility ([1]; SIF): 3.06 µg/mL (≈ 0.00487 mM)
- efflux ratio at 200 μg/mL ([2]; Caco-2, Papp(BL→AP)/Papp(AP→BL), read-out: ER value (efflux ratio)): 14.2
- Papp A→B at 200 μg/mL ([2]; Caco-2 monolayer, DE 200 μg/mL, read-out: Papp (AP to BL)): 0.59 ± 0.055 ×10⁻⁶ cm/s
- Papp B→A at 200 μg/mL ([2]; Caco-2 monolayer, DE 200 μg/mL, read-out: Papp (BL to AP)): 8.44 ± 0.072 ×10⁻⁶ cm/s
- absolute bioavailability ([3]; after oral administration, ref Greig & Mckeage, 2014): approximately 6.5%
- oral bioavailability ([3]; ref Wang et al., 2013): 3–7%
- viability at 24 h [4]: > 80%
